Test results as given in ChEMBL document CHEMBL4017441, “Mitigating the inhibition of human bile salt export pump by drugs: opportunities provided by physicochemical property modulation, in silico modeling, and structural modification” (Drug Metab Dispos, 2012).

Target: Bile salt export pump (Homo sapiens, UniProt O95342)
Assay type: ADME

| SMILES | IC50 [µM] |
| --- | --- |
| CCCCC(=O)N(Cc1ccc(-c2ccccc2-c2nnn[nH]2)cc1)[C@H](C(=O)O)C(C)C | 31.1 |
| CNC(=O)Oc1ccc2c(c1)C1(C)CCN(C)C1N2C (stereo not drawn) | > 1000 |
| O=C(O[C@H]1C[N+]2(CCCOc3ccccc3)CCC1CC2)C(O)(c1cccs1)c1cccs1 | 127 |
| O=C(CCCCC(=O)Nc1c(I)cc(I)c(C(=O)O)c1I)Nc1c(I)cc(I)c(C(=O)O)c1I | > 970 |
| N[C@H](Cc1cc(I)c(Oc2cc(I)c(O)c(I)c2)c(I)c1)C(=O)O | < 10 |
| CCCc1c2nc(C(=O)O)cc(Cl)c2cc2c(=O)cc(C(=O)O)oc12 | > 892 |
| COc1ccc2c(c1OC)C(=O)OC2C1c2cc3c(cc2CCN1C)OCO3 (stereo not drawn) | 65.6 |
| CC[C@@H](C(N)=O)N1CCCC1=O | > 1000 |
| COC1C(OC(=O)/C=C/C=C/C=C/C=C/C(=O)O)CCC2(CO2)C1C1(C)OC1CC=C(C)C (stereo not drawn) | 25.6 |
| c1ccc2[nH]c(-c3nc4ccccc4[nH]3)nc2c1 | 31.3 |
| CN1CCC(OC(c2ccccc2)c2ccccc2)CC1 | 509 |
| C=CC1CN2CCC1CC2C(O)c1ccnc2ccccc12 (stereo not drawn) | > 1000 |
| O=C(NCC12CC3CC(CC(C3)C1)C2)c1cc(CN2CCNCC2)ccc1Cl | 124 |
| NCC1OC(OC2C(CO)OC(OC3C(O)C(N)CC(N)C3OC3OC(CN)C(O)C(O)C3N)C2O)C(N)C(O)C1O (stereo not drawn) | > 1000 |
| Cc1ccc(OC(C)(C)[C@H]2OC[C@@H](C/C=C\CCC(=O)O)[C@@H](c3cccnc3)O2)c([N+](=O)[O-])c1 | < 10 |
| CNCC(O)c1cccc(O)c1 (stereo not drawn) | > 1000 |
| C/C=C/C(=O)N(CC)c1ccccc1C | 110 |
| CO[C@H]1/C=C/O[C@@]2(C)Oc3c(C)c(O)c4c(c3C2=O)C2=NC3(CCN(CC(C)C)CC3)NC2=C(NC(=O)/C(C)=C\C=C\[C@H](C)[C@H](O)[C@@H](C)[C@@H](O)[C@H](C)[C@H](OC(C)=O)[C@H]1C)C4=O | < 10 |
| CN[C@]1(C)[C@H]2CC[C@H](C2)C1(C)C | > 1000 |
| O=C(O)c1cc2cc(O)ccc2n1Cc1ccc(Cl)c(Cl)c1 | 49.8 |
| COc1ccc2c(c1OC)C(=O)OC2C1c2c(cc3c(c2OC)OCO3)CCN1C (stereo not drawn) | 23.9 |
| CCCCCC(C)(O)/C=C/[C@@H]1[C@@H](C/C=C\CCCC(=O)O)[C@@H](O)C[C@H]1O (stereo partly drawn) | 329 |
| CCc1cc(CC)c2oc(C(=O)O)cc(=O)c2c1O | 112 |
| Cc1ccc(NC(=O)c2cccc3c2oc2ccccc23)cc1NC(=O)c1cccc(OC2CCN(C(C)C)CC2)c1 | < 10 |
| O=CN(O)C(CCCc1ncccn1)CS(=O)(=O)N1CCN(c2ccc(F)cc2)CC1 (stereo not drawn) | < 16.4 |

| SMILES | IC50 [µM] |
| --- | --- |
| Cc1cc2c(cc(C(=O)O)n2Cc2ccc(Cl)c(Cl)c2)o1 | 15.9 |
| CC(=O)NC[C@H]1CN(c2ccc(C(=O)c3cnc4ccc(Cl)cn34)cc2)C(=O)O1 | 27.6 |
| C[C@H](Oc1ccc(C(F)(F)F)cc1-c1ccc(S(C)(=O)=O)c(C(F)(F)F)c1)C(=O)O | 35.8 |
| COc1cc2c(Oc3ccc4[nH]c(C)cc4c3F)ncnc2cc1OCCCN1CCCCC1 | 22.7 |
| O=CN(O)C(CCc1ccccn1)CS(=O)(=O)N1CCN(c2ccc(Cl)cn2)CC1 (stereo not drawn) | < 10 |
| CC1=C(C(=O)O)N2C(=O)[C@@H](NC(=O)C(N)C3=CCC=CC3)C2SC1 (stereo partly drawn) | > 1000 |
| CCC1C(=O)OCC1Cc1cncn1C (stereo not drawn) | > 1000 |
| Cc1cc(Nc2nc(NCc3cc(-c4ccccn4)no3)ncc2Cl)[nH]n1 | < 10 |
| O=CN(O)C(CCc1ncccn1)CS(=O)(=O)N1CCN(c2ccc(Cl)cn2)CC1 (stereo not drawn) | < 10 |
| COc1ccc2cc(C(C)CO)ccc2c1 (stereo not drawn) | 97.6 to 98 |
| O=C(O)c1cc2scnc2n1Cc1ccc(Cl)c(Cl)c1 | 22.4 |
| CC(C)(C)C(=O)CN1CC2CN(CCCNc3ccc(C#N)cc3)CC(C1)O2 | 514 |
| Nc1nc(NCCN2CCOCC2)nc2nc(-c3ccco3)nn12 | > 1000 |
| CCCCCCCC/C=C/CCCCCCCC(=O)OCC(COP(=O)(O)OCC[N+](C)(C)C)OC(=O)CCCCCCC/C=C/CCCCCCCC (stereo not drawn) | < 16 |
| CC[C@H]1OC(=O)[C@H](C)[C@H](O[C@H]2C[C@@](C)(OC)[C@@H](O)[C@H](C)O2)[C@H](C)[C@@H](O[C@@H]2O[C@H](C)C[C@H](N(C)C)[C@H]2O)[C@](C)(O)C[C@@H](C)CN(C)[C@H](C)[C@H](O)[C@]1(C)O | > 1000 |
| COc1c(C(=O)O)n(Cc2ccc(Cl)c(Cl)c2)c2ccc(O)cc12 | 39.6 |
| CC(=O)NC[C@H]1CN(c2cc(F)c(C3=CCN(C(=O)CO)CC3)c(F)c2)C(=O)O1 | > 1000 |
| O=CN(O)C(CCc1ccccc1)CS(=O)(=O)N1CCN(c2ccc(Cl)cn2)CC1 (stereo not drawn) | < 10 |
| CC(=O)OCC(=O)C1(O)C(C)CC2C3CC(F)C4=CC(=O)C=CC4(C)C3C(O)CC21C (stereo not drawn) | 33.6 |
| CC(=O)NC[C@H]1CN(c2ccc(-n3cnc(Br)c3)c(F)c2)C(=O)O1 | 349 |
| CCCc1ccc(OCC(C)O)c2c(=O)cc(C(=O)O)oc12 (stereo not drawn) | 271 |
| CCCc1c(OCCCOc2ccc3c(=O)cc(CCC(=O)O)oc3c2CCC)ccc(C(C)=O)c1O | < 10 |
| Cc1cccc(C)c1NC(=O)[C@H]1CCCCN1C | > 1000 |
| CCCC(=O)c1cnc2c(OCC[S+](C)[O-])cccc2c1Nc1ccc(F)cc1C (stereo not drawn) | < 10 |
| O=C(O)c1cc2c(F)c(O)ccc2n1Cc1ccc(Cl)c(Cl)c1 | 19.3 |

| SMILES | IC50 [µM] |
| --- | --- |
| O=CN(O)C(CCc1ccccc1)CS(=O)(=O)N1CCN(c2ccc(F)cc2)CC1 (stereo not drawn) | < 10 |
| CC(CCC(=O)O)C1CCC2C3C(=O)CC4CC(=O)CCC4(C)C3CC(=O)C12C (stereo not drawn) | 202 |
| O=CN(O)C(CCCc1ncccn1)CS(=O)(=O)N1CCC(Oc2ccc(Cl)cn2)CC1 (stereo not drawn) | < 10 |
| C[C@@](O)(C(=O)Nc1ccc(S(=O)(=O)c2ccc(NCCO)cc2)cc1Cl)C(F)(F)F | 27.4 |
| Cc1ccc(-n2c3c/c(=N\C(C)C)c(Nc4ccc(Cl)cc4)cc-3nc3ccccc32)cc1 | 135 |
| CC(=O)Oc1ccc2c(c1)cc(C(=O)O)n2Cc1ccc(Cl)c(Cl)c1 | 55.2 |
| CC(C)C(=O)N[C@@H](CS)C(=O)O | > 1000 |
| C[C@H]1C[C@@](O)(c2csc(Sc3ccc4c(c3)CC(=O)N4C)c2)CCO1 | < 10.9 |
| COc1ccc(CC(N)C(=O)N[C@@H]2[C@@H](CO)OC(n3cnc4c(N(C)C)ncnc43)[C@@H]2O)cc1 (stereo partly drawn) | > 787 |
| Cc1cc(CCC(=O)O)cc(C)c1-c1nc2ccc(-c3nnc(Nc4cccc(Cl)c4)o3)cc2[nH]1 | < 10 |
| O=C(NO)C(CCc1ccccc1)CS(=O)(=O)N1CCN(c2ccc(F)cc2)CC1 (stereo not drawn) | < 10 |
| Cc1nc2c3c(ccn2c1CO)CCC(c1ccccc1)O3 (stereo not drawn) | < 10 |
| Bc1ccc(S(=O)(=O)N2CCN(C(=O)N3CCN(c4cc(C)ncn4)CC3)CC2)cc1 | < 10 |
| O=CN(O)C(CCc1cccnc1)CS(=O)(=O)N1CCC(Oc2ccc(Cl)cn2)CC1 (stereo not drawn) | < 10 |
| O=C(O)c1cc2c(OCCCO)cccc2n1Cc1ccc(Cl)c(Cl)c1 | < 14 |
| O=CN(O)C(CCc1cccnc1)CS(=O)(=O)N1CCN(c2ccc(Cl)cn2)CC1 (stereo not drawn) | < 10 |
| O=C(/C=C/c1c(C(=O)O)[nH]c2cc(Cl)cc(Cl)c12)Nc1ccccc1 | < 10 |
| CCOC(N)=O | > 1000 |
| CC(C)[C@H](O)C(=O)N[C@@H](C)C(=O)N[C@@H]1C(=O)N(C)CCc2ccccc21 | 472 |
| COc1cccc(N2C(N)=NC(N)=NC23CCCCC3)c1 | > 1000 |
| CCCCCCCCCCCCc1ccc(S(=O)(=O)Nc2nncs2)cc1 | 21 |
| N=c1nc(N2CCCCC2)cc(N)n1O | > 1000 |
| N[C@@H](Cc1ccc(N(CCCl)CCCl)cc1)C(=O)O | 93.7 |
